Reference: patent publication EP0719546B1, “LUV comprising saturated phospholipids and method of making the same” (THE LIPOSOME COMPANY, INC., priority 1987, dated 1988)
Where a name gives a salt, the structure may show the parent alone.

Assays:
[1] = Drug uptake into EPC large unilamellar vesicles with proton gradient; assay type: physicochemical; conditions: 300 mM citric acid pH 4.0 inside, pH 7.5 outside; for encapsulation by the vesicles: EPC LUVs (100 nm filters), 25°C
Method: Egg phosphatidylcholine (15 mg) was dispersed in 2 ml of 300 mM citric acid, pH 4.0 and the resulting MLVs frozen in liquid nitrogen and thawed in warm water (approximately 35°C) a total of five times. The lipid was then extruded 10 times through two stacked 100 nm pore size polycarbonate filters using the LUVET procedure. A proton gradient was created by passage of the vesicles over a Sephadex G-50 (fine) column (1.5 cm x 10 cm) preequilibrated with 300 mM NaCl, 20 mM HEPES, pH 7.5. An aliquot of the large unilamellar vesicles eluted from the column was diluted in 300 mM NaCl, […], pH 7.5 to a lipid concentration of 0.75 mgml^-1 in a total volume of 2 ml and then daunorubicin (113 ug) added from a stock solution (5.64 mgml^-1) in distilled water. The mixture was incubated at room temperature (25°C) and at intervals of 2, 10, 20, 30, 60 and 120 minutes, 100 ul aliquots were centrifuged through 1 ml "minicolumns" of Sephadex G-50 (fine) to remove any unencapsulated daunorubicin from the vesicles. The concentration of entrapped daunorubicin was determined from its absorbance at 500 nm in a Shimadzu UV-265 spectrophotometer following solubilization of the vesicles in 1% Triton X-100. Lipid was quantified by liquid scintillation counting using tracer levels of ^3H-DPPC. In excess of 98% of the daunorubicin was encapsulated by the vesicles giving a drug to lipid molar ratio of 1:5.
The materials and procedures of Example 30 were employed except that epirubicin (116 ug) was addded to the vesicle suspension (2 ml) from a stock solution (5.8 mgml^-1). Epirubicin uptake was quantified from its absorbance at 500 nm following solubilization of the vesicles in 1% Triton X-100. Epirubicin encapsulation by the vesicles was in excess of 98% giving a drug to lipid molar ratio of 1:5.
The materials and procedures of Example 30 were employed except that mitoxanthrone (103 ug) was added to the vesicle suspension (2 ml) from a stock solution (2 mgml^-1). Mitoxantrone uptake was quantified from its absorbance at 670 nm following solubilization of the vesicles in 2% Triton X-100. Mitoxantrone encapsulation by the vesicles was in excess of 98% giving a drug to lipid molar ratio of 1:5.
The materials and procedures of Example 30 were employed except that cisplatin (200 uM) was combined with the liposome suspension.

[2] = Vincristine trapping efficiency, pH gradient loading; assay type: physicochemical; conditions: DSPC/cholesterol (55:45) liposomes, 300 mM citric acid pH 4.0, 200 nm filter, drug to lipid approximately 0.17:1, external pH about 7.0, 60°C for 10 minutes
Method: These MLVs (100 mg total lipid/ml buffer) were extruded 10 times through a 200 nm pore size polycarbonate filter in a thermojacket LUVET heated to 60°C. Liposomes were added to a solution of 1 mg/ml vincristine sulfate (Oncovin, available from Eli Lilly and Co., Indianapolis, IN) to achieve a drug to total lipid weight ratio of approximately 0.17:1. To this was added a sufficient amount of 1.0 M Na2HPO4 to bring the pH of the solution to about 7.0. The samples were then heated at 60°C for 10 minutes at which time the drug was encapsulated inside the liposomes at a trapping efficiency in excess of 98%.
The above was repeated using EPC/cholesterol and HSPC/cholesterol.

ascites L1210 tumor line = experiment: Antitumor activity of vincristine, L1210 lymphocytic leukemia model; assay type: in vivo, DBA/2J mice; conditions: L1210 model in mice
Method: The antitumor activity of free and liposomal vincristine was assessed employing an L1210 lymphocytic leukemia model. DBA/2J mice (6 mice per group) were injected i.p. with 1 X 10^6 L1210 cells derived from the ascites fluid of a previously infected mouse. Liposomal vincristine made according to Example 27 was administered i.v. at various times after tumor innoculation and animal weights as well as mortality rates were monitored.
The above example was repeated by administering free vincristine and empty liposomes.

[3] = In vitro release of doxorubicin from liposomes under dialysis; assay type: physicochemical; conditions: vesicles containing 300 mM citrate (pH 4.0), drug to lipid (wt/wt) ratio 1:10 to 1:3, over 24 hours
Method: The materials and-procedures of Example 6 were employed to determine the in vitro stability of the liposome-doxorubicin preparations. Release experiments were performed as follows: 10-fold dilute liposome samples were dialyzed for 24 hours against 1000 volumes of 20 mM HEPES, 150 mM NaCl (pH 7.5) at 37°C. At 1, 2, 4, 8, 10, and 24 hours post-preparation, a 150 ul aliquot was removed and the entrapped doxorubicin was determined.
EPC/cholesterol (55/45 mole ratio) was dried from chloroform to a thin film on a 500 ml capacity round bottom flask (400 mg total lipid). The film was hydrated with 4.0 ml of 300 mM citric acid at pH 4.0, forming MLVs. These MLVs were extruded through 2 stacked 0.22 um Nucleopore membrafil filters followed by extrusion 10 times through a 0.1 um Nucleopore membrafil (tortuous path) filter. To 1.0 ml of the resulting filtrate sample was added 275 ul of 1M Na2CO3, which raised the exterior pH to 8.3. An aliquot (0.6 ml) was heated for 3 minutes at 60°C, as was a 10 mg sample of doxorubicin. The liposome aliquot was added to the 10 mg doxorubicin and heated at 60°C for 5 minutes. The sample was divided into 2 parts. […] At 1 hour, a 150 ul aliquot was removed and analyzed for doxorubicin and lipid phosphate as previously described, after passage down a 1.0 ml Sephadex column equilibrated in the respective buffer. […]

[4] = Doxorubicin entrapment (trapping) efficiency, transmembrane pH gradient loading; assay type: physicochemical
Method: In order to determine whether an ionizable antineoplastic agent will load into liposomes in response to a transmembrane pH gradient, EPC-containing liposomes are made (about 1.0 mM EPC) with a ^3H-DPPC tracer and with a relatively acidic or basic internal medium such as 300 mM citric acid at about pH 4.0. These liposomes are extruded about 10 times according to the LUVET procedure through 2 100 nm filters, followed by adjustment of the external pH to a relatively basic or acidic pH, for example, sodium carbonate, at about pH 11.0. Following the formation of the pH gradient, the agent to be loaded, spiked with a radioactive isotope of the agent, is admixed with the liposomes to about 200 uM (per 1.0 mM lipid used). The liposomes are separated from free, unentrapped agent on G50-M Sephadex minicolumns at 500 X g for 3 minutes into 13 X 100 mm tubes, and radioactivity counted in a scintillation counter. Uptake of the drug in nmoles per umole of lipid is then plotted over incubation time. One hundred percent of the available doxorubicin is taken up into liposomes under these conditions.
In the case of doxorubicin, commercially available forms, such as powdered, solid, and methylparaben-containing forms (Adriamycin R.D.F., Adria Laboratories, Inc., Columbus, Ohio) may be used in the invention. When the methylparaben-containing form is employed, an aqueous solution such as saline may be added to that form, thereby dissolving it, followed by the admixing of this suspension with the liposomes which have the transmembrane pH gradient across their bilayers. Such admixing at 60°C for about 10 minutes results in more than about 98% encapsulation of the doxorubicin.
To determine entrapment efficiency of the liposome preparations, free and liposome encapsulated doxorubicin was monitored spectrophotometrically employing a Shimadzu UV-160 spectrophotometer as follows: the liposomal-doxorubicin samples were diluted with 20 mM Hepes, 250 mM NaCl (pH 7.5) to achieve approximate doxorubicin concentrations between 0.05-0.10 mM. The following sequence of measurements was made; (1) the absorbance at 600 nm of the diluted sample was adjusted to zero; (2) the sample was alkalinized to pH 10.5 with 1.0 N NaOH (0.02 ml/1.0 ml of sample) and the absorbance at 600 nm was recorded within 2 minutes; (3) the spectrophotometer was zeroed against a 0.2% Triton X-100 solution, and (4) the absorbance at 600 nm of the liposomal-doxorubicin sample to which Triton X-100 had been added (0.02 ml 20% Triton X-100 wt./wt./1.0 ml of sample) was determined. Free:total doxorubicin ratios were calculated as the absorbance at 600 nm upon NaOH addition divided by the absorbance after Triton X-100 addition.
To relate the pH-dependent spectral response technique to actual free and trapped drug levels, vesicle entrapped doxorubicin was determined as follows: A small aliquot of the liposomal-doxorubicin solution was passed down Sephadex G-50 gel columns equilibrated in 20 mM Hepes, 150 mM NaCl (pH 7.5) to separate free from liposome-associated drug. The liposome-containing eluant as well as aliquots of the original solutions were assayed for phospholipid and doxorubicin by phosphorus analysis and optical density at 480 nm, respectively as previously described in Mayer et al., (1986), Biochim Biophys. Acta., 857:123.
The materials and procedures of Example 3 were employed, but entrapment efficiency of liposome encapsulated doxorubicin was monitored by comparison of the color resulting from addition of an aliquot (0.2 ml) of the liposomes to 1.0 N NaOH to a color chart.
After completion of the entrapment procedure according to Example 6, 20 ul of the doxorubicin-liposomes were diluted to 200 ul with 20 mM HEPES, 150 mM NaCl (pH 7.5). An aliquot of this diluted sample (20 ul) was assayed for lipid phosphate by the procedure of Bartlett, J. Biol. Chem. 1959, 234:466-468. […]

SC-115 cells = experiment: SC-115 tumor growth in Shinogi mice; assay type: in vivo, Male Shinogi mice; conditions: SC-115 tumor, 3.25, 6.5 and 13 mg/kg i.v., 3 injections at seven day intervals
Method: Male Shinogi mice (25-40g, 9 per group) were injected subcutaneously with 1X10^5 SC-115 cells obtained from a primary tumor in previously inoculated mice. Tumor growth was monitored by palpation and tumor measurements with a vernier caliper. Upon growth of the tumor to 0.5-2.0 g (tumor weight = [width^2 x length]/2, measurements in mm), mice were administered liposomal doxorubicin dose of 13 mg/kg i.v. at seven day intervals (3 injections of the indicated dose). Tumor growth was monitored 3 times weekly for 50 days post first treatment or until the tumor weight exceeded 9 g at which time the animal was sacrificed. Treatment doses were based on the initial animal weights prior to tumor inoculation.
The above procedure was repeated and the mice were administered saline or empty liposomes (administered at a dose equivalent to that given for a liposomal doxorubicin dose of 13 mg/kg).
The above procedure was repeated at 3.25 mg/kg dose and 6.5 mg/kg dose for free and liposomal doxorubicin.

With `O=C1c2c(O)ccc(O)c2C(=O)c2c(NCCNCCO)ccc(NCCNCCO)c21` [Mitoxantrone, mitoxanthrone] the “encapsulation by the vesicles” value [1] was over 98%.
With `COc1cccc2c1C(=O)c1c(O)c3c(c(O)c1C2=O)C[C@@](O)(C(=O)CO)C[C@@H]3O[C@H]1C[C@H](N)[C@@H](O)[C@H](C)O1` [Epirubicin, epirubicin] the “encapsulation by the vesicles” value [1] was over 98%.
For `CC[C@]1(O)C[C@H]2CN(CCc3c([nH]c4ccccc34)[C@@](C(=O)OC)(c3cc4c(cc3OC)N(C=O)[C@H]3[C@@](O)(C(=O)OC)[C@H](OC(C)=O)[C@]5(CC)C=CCN6CC[C@]43[C@@H]65)C2)C1` [vincristine, vincristine sulfate], the trapping efficiency [2] was over 98% and the “efficacy against the ascites L1210 tumor line” value (ascites L1210 tumor line) was “no efficacy”.
In the case of `COc1cccc2c1C(=O)c1c(O)c3c(c(O)c1C2=O)C[C@@](O)(C(C)=O)C[C@@H]3O[C@H]1C[C@H](N)[C@H](O)[C@H](C)O1` [daunorubicin], the “encapsulation by the vesicles” value [1] is reported as over 98%.
In the case of `COc1cccc2c1C(=O)c1c(O)c3c(c(O)c1C2=O)C[C@@](O)(C(=O)CO)C[C@@H]3O[C@H]1C[C@H](N)[C@H](O)[C@H](C)O1` [doxorubicin], the drug released [3] is reported as “less than 5%”, the “available doxorubicin taken up into liposomes” value ([4]; EPC liposomes (about 1.0 mM), 300 mM citric acid pH 4.0 inside, 100 nm filters, external sodium carbonate, about 200 uM agent) is reported as “One hundred” and the trapping efficiency ([4]; Example 14: HSPC/cholesterol 2.4:1 weight ratio, 300 mM citric acid pH 4.0, 0.2 um filter, external pH 8.5, 15 minutes at 60°C, color test) is reported as “greater than 95%”. The entrapment efficiency ([4]; Example 21: DSPC liposomes, 300 mM citric acid pH 4.0, 0.2 um filters, external pH 7.8, drug to lipid ratio 0.25:1, 60°C for 5 minutes) was “greater than 95%”, the “drug entrapped by the liposomes” value ([4]; Example 26: EPC/cholesterol (55:45 mol ratio), methods of Example 2) was “Greater than 98%” and the “encapsulation of the doxorubicin” value ([4]; methylparaben-containing form (Adriamycin R.D.F.) dissolved in saline, admixed with pH gradient liposomes at 60°C for about 10 minutes) was “more than 98%”. For the same compound, the entrapment ([4]; vesicles containing 300 mM citrate (pH 4.0), drug to lipid (wt/wt) ratio between 1:10 and 1:3) was “about 100%”, the trapping efficiencies ([4]; vesicles, drug to lipid ratios (wt/wt) 0.1:1 to 0.3:1, neutral, negatively charged or saturated phospholipids, varying cholesterol) was “about 100%” and the tumor growth inhibition (SC-115 cells) was “dose dependent tumor growth inhibition”.
For `N.N.[Cl][Pt][Cl]` [Cisplatin, cisplatin], the “accumulation into liposomes by the transmembrane pH gradient” value ([1]; EPC LUVs, 200 uM drug) was “not accumulated”.
